Assay results from US5831001A, “Treatment of herpesvirus infection” (priority 1995, dated 1998).

Legend:
HSV = test: plaque reduction assay, inhibition of HSV replication; type: cell-based; settings: for Virus titer: pretreated Veto cell monolayers, plaques counted after 2 to 3 days
Method: Selected compounds were first formulated as 10 mM stocks in water for in vitro and call culture procedures. Then stocks are then diluted into buffers used for specific assays, or into cell culture media. For animal studies peptides are diluted into phosphate buffer saline,
The following procedures were then used to determine inhibitory effects of compounds on the replication of HSV. First, confluent monolayers of Veto cells (continuous passage cell line derived from African Green Monkeys) in 24 well cell culture plates were treated with specified concentrations of peptide for 25 hours. This was accomplished by diluting the stock peptide solution in growth medium used to overlay the monolayers, i.e. growth medium containing 10% fetal bovine serum and 10 ug/ml gentamicin in Dulbecco's MEM (DMEM).
Virus was then allowed to adsorb for 1 hour at 37° C. The virus inoculum was removed and the monolayers are overlayed with DMEM containing 2% FBS, 10 ug/ml gentamicin and specified concentration of peptide. Virus was next allowed to replicate for 2 to 3 days until the plaques were judged to be well developed, and then the monolayers were fixed and stained with a solution of 1% crystal violet in 1% formaldehyde, 70% ethanol. Finally, plaques (each representing a single viable virion) were counted and checked microscopically.

SMILES: CC(=O)N[C@H](CCCNC(=N)N)C(=O)N[C@H](CCCNC(=N)N)C(=O)N[C@H](CCCNC(=N)N)C(=O)N[C@H](CCCNC(=N)N)C(=O)N[C@H](CCCNC(=N)N)C(=O)N[C@H](CCCNC(=N)N)C(=O)N[C@H](CCCNC(=N)N)C(=O)N[C@H](CCCNC(=N)N)C(=O)N[C@H](CCCNC(=N)N)C(N)=O [compound 4C, acetyl-[D-Arg]9 -NH2]
- inhibition of host cell replication (Veto cells): no apparent inhibition
- inhibition of viral replication (HSV; at the concentration tested (5uM)): ≥ 95%
- Virus titer (HSV; peptide concentration 0.5 uM): 30,000 pfu/ml
- Virus titer (HSV; peptide concentration 5.0 uM): 11,000 pfu/ml
